Experimental data reported in patent EP0982399B1, “Thyroid hormone transporters, agonists and antagonists thereof” (Stichting tot bevordering van de wetenschap der …, priority 1998, dated 2000).
Counter-ions that a name gives are not always drawn.

What was measured:
[1] = test system: Na^+-independent organic anion transporting polypeptide (oatp1); experiment: Uptake of [125I]iodothyronine derivatives by Xenopus laevis oocytes injected with oatp1 cRNA; settings: oatp1 cRNA-injected oocytes; 1-2 nM ligand; Na^+ medium
Method: (§1) For capping, the m7G[5']ppp[5']G cap analog was used (Epicentre Technologies). cRNA was stored in water at -80 C at a concentration of 0.1 mg/ml.
(§2) Oocytes were prepared as described previously (9). After isolation, the oocytes were sorted on morphological criteria and defolliculated manually. […] The next day, oocytes were injected with 23 nl water containing 23 ng mRNA, 2.3 ng Ntcp cRNA or 2.3 ng oatp1 cRNA using the Nanoject system (Drummond Scientific, Broomall, PA). Injected and uninjected oocytes were maintained for 2-3 days at 18 C in modified Barth's solution.
(§3) Uptake assays were performed as described previously (9). […] After 1 h, incubation buffer was removed and the oocytes were washed four times with 2.5 ml ice-cold Na^+-containing incubation buffer supplemented with 0.1% BSA. Oocytes were transferred to new tubes and counted individually.

[2] = Uptake of [125I]iodothyronine derivatives by Xenopus laevis oocytes injected with Ntcp cRNA; settings: for uptake ratio at 1 h: oatp1, choline
Method: as §1, §2, §3

| uptake ratio at 1 h, 100 µM ([2]; xenopus oocytes, ntcp crna) | SMILES | uptake higher than that of the other sulfates [1] | uptake ratio at 1 h, 100 µM [2] | uptake ratio at 1 h ([2]; xenopus oocytes) | uptake ratio at 1 h, 100 µM ([2]; xenopus oocytes, oatp1 crna) |
| --- | --- | --- | --- | --- | --- |
| – | NC(Cc1cc(I)c(Oc2ccc(OS(=O)(=O)O)c(I)c2)c(I)c1)C(=O)O (stereo not shown) [T3S, T3 sulfate] | ~50% | – | – | – |
| – | N[C@@H](Cc1ccc(Oc2ccc(O)c(I)c2)c(I)c1)C(=O)O [3,3'-T2, 3,3'-diiodothyronine] | – | 1.3 | 1.8 | 1.4 |
| 1.9 | N[C@@H](Cc1cc(I)c(Oc2cc(I)c(O)c(I)c2)c(I)c1)C(=O)O [T4, 3,3',5,5'-tetraiodothyronine] | – | – | 3.8 | 2.8 |
| – | N[C@@H](Cc1ccc(Oc2cc(I)c(O)c(I)c2)c(I)c1)C(=O)O [rT3, 3,3',5'-triiodothyronine] | – | 1.8 | 8.5 | 6 |
